According to patent US6395730B1, “Potassium channel inhibitors” (Icagen, Inc., priority 1998, dated 2002):

Columns and labels:
human Kv1.5 = target: T1, human Kv1.5 (Homo sapiens, UniProt P22460); test: 86Rb efflux assay; assay type: cell-based; settings: inhibition of 86Rb efflux through Kv1.5 potassium channels expressed in CHO cells; 70 mM KCl depolarization; read-out: IC50 (μM) (flux)
T1 construct: expressed in transfected cells
Description: Cells stably transfected with cDNA for human Kv1.5 (in pcDNA3 vector) were grown as confluent monolayers in 96 well tissue culture plates in MEM alpha with 10% heat inactivated fetal bovine serum and 400 μg/ml G418. Cells were incubated overnight in growth media containing 1 μCi/ml ^86Rb to permit intracellular uptake of the isotope. At the end of the incubation period, the ^86Rb solution is aspirated and the cells washed three times with Earls Balanced Salt Solution (EBSS) which contains (in mM) 132 NaCl, 5.4 KCl, 1.8 CaCl2, 0.8 mM MgCl2 10 mM HEPES and 5 mM glucose. The cells were then preincubated for 10 minutes at room temperature in 100 μl/well of EBSS or EBSS containing test compounds. At the end of this period the wells were aspirated and to each well is then added 100 μl of a modified EBSS solution containing 70 mM KCl (NaCl replaced by KCl) and the compound to be tested. The high KCl concentration is utilized to depolarize the cells to membrane potentials that will activate Kv1.5 channels. After a 1 minute incubation in 70 mM KCl EBSS plus test compound, the solution is removed and placed into the appropriate well of a 96 well counting plate for analysis. Finally 100 μl of 0.1% sodium dodecyl sulfate in EBSS is added to each well to lyse the cells. The lysate is taken for analysis to determine final cell content of ^86Rb. Samples were counted in a Wallac Microbeta liquid scintillation counter by Cerenkov emission. Efflux is expressed as a percentage of the initial cell content of ^86Rb.
The testing results of selective compounds from Tables 1 and 2 using this assay are reported in Table 3 (flux) as the potency for inhibition of ^86Rb efflux through Kv1.5 potassium channels expressed in CHO cells by compounds of the invention.

[1] = target: Kv1.5 potassium channel subunit (Homo sapiens, UniProt P22460); test: Electrophysiological studies (whole cell patch clamp); assay type: cell-based; settings: inhibition of Kv1.5 potassium currents, Chinese hamster ovary cells stably expressing Kv1.5
Sequence of Kv1.5 potassium channel subunit (P22460 whole entry): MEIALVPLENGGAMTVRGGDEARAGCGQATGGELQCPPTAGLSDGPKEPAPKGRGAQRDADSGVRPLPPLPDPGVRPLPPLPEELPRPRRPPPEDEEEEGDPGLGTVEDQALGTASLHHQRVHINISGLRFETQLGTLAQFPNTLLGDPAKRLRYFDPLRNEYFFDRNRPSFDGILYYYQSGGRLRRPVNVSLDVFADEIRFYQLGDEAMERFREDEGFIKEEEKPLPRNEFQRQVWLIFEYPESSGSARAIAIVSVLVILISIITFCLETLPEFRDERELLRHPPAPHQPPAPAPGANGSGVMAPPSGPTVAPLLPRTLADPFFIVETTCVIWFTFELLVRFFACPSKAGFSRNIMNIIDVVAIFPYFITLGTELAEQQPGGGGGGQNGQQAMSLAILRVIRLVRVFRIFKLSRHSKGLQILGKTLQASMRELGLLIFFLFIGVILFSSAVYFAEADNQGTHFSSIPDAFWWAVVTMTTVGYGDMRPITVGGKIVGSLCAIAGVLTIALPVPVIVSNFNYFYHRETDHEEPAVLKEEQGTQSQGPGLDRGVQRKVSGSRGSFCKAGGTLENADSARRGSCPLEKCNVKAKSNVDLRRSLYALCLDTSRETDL
Description: Electrophysiological recordings of potassium currents in Chinese hamster ovary cells stably expressing the gene construct for the Kv1.5 potassium channel subunit were performed using the whole cell configuration of the patch clamp technique (Hamill et al., Pflugers Archiv 391:85, 1981). Cell lines expressing Kv1.5 were prepared using standard techniques known to those skilled in the art. Cells were plated on glass coverslips at a density of 2×10^4 cells/coverslip and used within 24-48 hours. Solutions used for electrophysiological recordings were as follows. Extracellular bathing solutions contained (in mM) 132 NaCl, 5.4 KCl, 1.8 CaCl2, 0.8 MgCl2, 10 HEPES, 5 glucose at pH 7.3. Electrode pipette solutions for measuring Kv1.5 contain (in mM) 100 KF, 40 KCl, 5 NaCl, 2 MgCl2, 5 mM EGTA, 10 mM HEPES and 5 glucose at pH 7.4, 295 mOsm. The coverslips were placed in a small chamber (volume ˜200 μl) on the mechanical stage of an inverted microscope and […] (2 ml/min) with extracellular recording solution. Drug application is achieved via a series of narrow-bore glass capillary tubes (inner diameter ˜100 μm) positioned approximately 200 μm from the cell.
The testing results of selective compounds from Tables 1 and 2 using this assay are reported in Table 3 (EP) as the potency for inhibition of Kv1.5 potassium currents by compounds of the invention.

T1 sequence (P22460 whole entry): as above

| IC50 (human Kv1.5) | IC50 [1] | SMILES |
| --- | --- | --- |
| 3.9 µM | 0.6 µM | COc1ccc(CCN2C(=O)CSC2c2cccc(OC)c2)cc1 (centres unmarked) [1 of Table 1] |
| 1.5 µM | 0.3 µM | COc1ccc(CCN2C(=O)CCSC2c2ccc(C)c(C)c2)cc1 (centres unmarked) [2 of Table 2] |
| 29.6 µM | 6 µM | COc1ccc(CCN2C(=O)CSC2c2ccc(OC)c(OC)c2)cc1 (centres unmarked) [5 of Table 1] |
| 9.9 µM | 1.2 µM | COc1cccc(CCN2C(=O)CSC2c2ccc3c(c2)OCO3)c1 (centres unmarked) [8 of Table 1] |
| 1.5 µM | 1 µM | COc1ccc(CCN2C(=O)CCSC2c2ccc3c(c2)OCO3)cc1 (centres unmarked) [18 of Table 2] |
| 14.5 µM | – | COc1ccc(CCN2C(=O)CSC2c2ccc(F)c(F)c2)cc1 (centres unmarked) [23 of Table 1] |
| 30 µM | 4.7 µM | COc1ccc(CN2C(=O)CSC2c2cccc(OC)c2)cc1 (centres unmarked) [36 of Table 1] |
| – | 0.6 µM | COc1ccc(CCN2C(=O)C(C)SC2c2ccc3c(c2)OCCO3)cc1 (centres unmarked) [45 of Table 1] |
| 0.9 µM | 0.2 µM | COc1ccc(CCN2C(=O)CSC2c2ccc(C)c(C)c2)cc1 (centres unmarked) [52 of Table 1] |
| 6.9 µM | 0.3 µM | Cc1ccc(C2SCC(=O)N2CCCCc2ccccc2)cc1C (centres unmarked) [60 of Table 1] |
| 1.3 µM | 0.7 µM | CCc1ccc(C2SCC(=O)N2CCc2ccc(OC)cc2)s1 (centres unmarked) [67 of Table 1] |
| 10.5 µM | 1.6 µM | CCCCCCN1C(=O)CSC1c1cccc(OC)c1 (centres unmarked) [77 of Table 1] |
| 4.7 µM | – | Cc1ccc(C2SCC(=O)N2CC#Cc2ccccc2)cc1C (centres unmarked) [82 of Table 1] |
